According to PubChem BioAssay AID1671438:

Target: Tyrosine-protein kinase Yes (Homo sapiens) (UniProt P07947)
Experiment: inhibitors of human YES1 tyrosine kinase activity – biochemical, Z'-LYTE, FRET readout, direct format, dose response (AID 1671438)
Conditions: recombinant YES1

Chain of Tyrosine-protein kinase Yes (Homo sapiens) (P07947 whole entry, looked up): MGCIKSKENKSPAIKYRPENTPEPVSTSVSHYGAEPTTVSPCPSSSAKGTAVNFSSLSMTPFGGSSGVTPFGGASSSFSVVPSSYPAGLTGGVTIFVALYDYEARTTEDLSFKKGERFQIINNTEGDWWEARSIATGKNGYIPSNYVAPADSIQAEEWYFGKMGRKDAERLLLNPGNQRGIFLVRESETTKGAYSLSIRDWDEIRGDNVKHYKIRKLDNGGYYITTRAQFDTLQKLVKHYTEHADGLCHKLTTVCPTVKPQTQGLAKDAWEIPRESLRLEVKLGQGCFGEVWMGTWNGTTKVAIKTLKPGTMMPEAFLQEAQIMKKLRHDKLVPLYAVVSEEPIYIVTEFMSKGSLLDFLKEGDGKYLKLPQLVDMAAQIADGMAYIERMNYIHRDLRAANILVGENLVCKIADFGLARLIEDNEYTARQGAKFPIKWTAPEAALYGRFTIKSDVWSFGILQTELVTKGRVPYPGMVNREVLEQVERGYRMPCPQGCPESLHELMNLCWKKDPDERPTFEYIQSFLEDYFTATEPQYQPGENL

COc1cc2ncnc(Nc3cccc(Cl)c3)c2cc1OC
IC50: 924 nM
